# From ChEMBL document CHEMBL3885881, “DrugMatrix”
# Organism: Rattus norvegicus
# Assay: DrugMatrix - Regimen: Daily Repeat
# Format: toxicity, organism-based, Sprague-Dawley
# Design: regimen Daily Repeat, gender Male, age 6-8 weeks
# Details: in vivo, po, route oral GAVAGE, vehicle 100 % WATER; for ABSOLUTE BASOPHIL / ABSOLUTE EOSINOPHIL / ABSOLUTE MONOCYTE / ABSOLUTE SEGMENTED NEUTROPHIL / BASOPHIL / EOSINOPHIL / ERYTHROCYTE COUNT / HEMATOCRIT / LEUKOCYTE COUNT / LYMPHOCYTE / MEAN CORPUSCULAR HEMOGLOBIN / MEAN CORPUSCULAR HEMOGLOBIN CONCENTRATION / MEAN CORPUSCULAR VOLUME / MONOCYTE / NEUTROPHIL / NUCLEATED RED BLOOD CELLS / PLATELET COUNT / ABSOLUTE LYMPHOCYTE / HEMOGLOBIN: tissue Blood
# [1] = 0 mg/kg, 72 h, dose level Control, time 3 day
# [2] = 0 mg/kg, 72 h, tissue Plasma, dose level Control, time 3 day
# [3] = 0 mg/kg, 120 h, dose level Control, time 5 day
# [4] = 0 mg/kg, 120 h, tissue Plasma, dose level Control, time 5 day
# [5] = 1 mg/kg, 72 h, dose level Low, time 3 day
# [6] = 1 mg/kg, 72 h, tissue Plasma, dose level Low, time 3 day
# [7] = 1 mg/kg, 120 h, dose level Low, time 5 day
# [8] = 1 mg/kg, 120 h, tissue Plasma, dose level Low, time 5 day
# [9] = 10 mg/kg, 72 h, dose level High, time 3 day
# [10] = 10 mg/kg, 72 h, tissue Plasma, dose level High, time 3 day
# [11] = 10 mg/kg, 120 h, dose level High, time 5 day
# [12] = 10 mg/kg, 120 h, tissue Plasma, dose level High, time 5 day
sequence,measurement,setting,value
THIMEROSAL,ABSOLUTE BASOPHIL,[1],0 CELLS/uL
same,ABSOLUTE EOSINOPHIL,[1],123.17 CELLS/uL
same,ABSOLUTE MONOCYTE,[1],66.17 CELLS/uL
same,ABSOLUTE SEGMENTED NEUTROPHIL,[1],1149.5 CELLS/uL
same,BASOPHIL,[1],0%
same,EOSINOPHIL,[1],0.83%
same,ERYTHROCYTE COUNT,[1],5.26 x10E6/uL
same,HEMATOCRIT,[1],33.07%
same,LEUKOCYTE COUNT,[1],14.02 x10E3/uL
same,LYMPHOCYTE,[1],90.17%
same,MEAN CORPUSCULAR HEMOGLOBIN,[1],25.62 pg
same,MEAN CORPUSCULAR HEMOGLOBIN CONCENTRATION,[1],40.65 G/DL
same,MEAN CORPUSCULAR VOLUME,[1],63 fL
same,MONOCYTE,[1],0.5%
same,NEUTROPHIL,[1],8.5%
same,NUCLEATED RED BLOOD CELLS,[1],0.17 /100WBC
same,PLATELET COUNT,[1],1142.83 x10E3/uL
same,ALANINE AMINOTRANSFERASE,[2],45.17 u/L
same,ALKALINE PHOSPHATASE,[2],340.17 u/L
same,ASPARTATE AMINOTRANSFERASE,[2],77.33 u/L
same,BLOOD UREA NITROGEN,[2],14.67 mg/dL
same,CREATINE PHOSPHOKINASE,[2],263.67 u/L
same,CREATININE,[2],0.15 mg/dL
same,LACTATE DEHYDROGENASE,[2],230 u/L
same,PHOSPHORUS,[2],11.8 mg/dL
same,POTASSIUM,[2],5.91 MEQ/L
same,TOTAL BILIRUBIN,[2],0.22 mg/dL
same,TOTAL PROTEIN,[2],5.7 G/DL
same,URIC ACID,[2],1.35 mg/dL
same,ABSOLUTE BASOPHIL,[3],0 CELLS/uL
same,ABSOLUTE EOSINOPHIL,[3],125 CELLS/uL
same,ABSOLUTE LYMPHOCYTE,[3],13809 CELLS/uL
same,ABSOLUTE MONOCYTE,[3],351 CELLS/uL
same,ABSOLUTE SEGMENTED NEUTROPHIL,[3],1581.67 CELLS/uL
same,BASOPHIL,[3],0%
same,EOSINOPHIL,[3],0.67%
same,ERYTHROCYTE COUNT,[3],5.53 x10E6/uL
same,HEMATOCRIT,[3],34.83%
same,LEUKOCYTE COUNT,[3],15.87 x10E3/uL
same,LYMPHOCYTE,[3],87.5%
same,MEAN CORPUSCULAR HEMOGLOBIN,[3],25.25 pg
same,MEAN CORPUSCULAR HEMOGLOBIN CONCENTRATION,[3],40.08 G/DL
same,MEAN CORPUSCULAR VOLUME,[3],63.05 fL
same,MONOCYTE,[3],2.17%
same,NEUTROPHIL,[3],9.67%
same,NUCLEATED RED BLOOD CELLS,[3],0 /100WBC
same,PLATELET COUNT,[3],1044 x10E3/uL
same,ALANINE AMINOTRANSFERASE,[4],50.67 u/L
same,ALKALINE PHOSPHATASE,[4],395 u/L
same,ASPARTATE AMINOTRANSFERASE,[4],86 u/L
same,CARBON DIOXIDE,[4],29.33 mmol/L
same,CHOLESTEROL,[4],71.33 mg/dL
same,CREATINE PHOSPHOKINASE,[4],323.17 u/L
same,CREATININE,[4],0.18 mg/dL
same,LACTATE DEHYDROGENASE,[4],389.5 u/L
same,LIPASE,[4],9.83 u/L
same,PHOSPHORUS,[4],11.35 mg/dL
same,POTASSIUM,[4],6.39 MEQ/L
same,TOTAL BILIRUBIN,[4],0.18 mg/dL
same,TOTAL PROTEIN,[4],6.1 G/DL
same,URIC ACID,[4],1.52 mg/dL
same,ABSOLUTE BASOPHIL,[5],0 CELLS/uL
same,ABSOLUTE EOSINOPHIL,[5],68 CELLS/uL
same,ABSOLUTE LYMPHOCYTE,[5],13921 CELLS/uL
same,ABSOLUTE MONOCYTE,[5],100.67 CELLS/uL
same,ABSOLUTE SEGMENTED NEUTROPHIL,[5],710.33 CELLS/uL
same,BASOPHIL,[5],0%
same,EOSINOPHIL,[5],0.33%
same,ERYTHROCYTE COUNT,[5],5.23 x10E6/uL
same,HEMATOCRIT,[5],33.4%
same,HEMOGLOBIN,[5],13.6 G/DL
same,LEUKOCYTE COUNT,[5],14.8 x10E3/uL
same,LYMPHOCYTE,[5],94.33%
same,MEAN CORPUSCULAR HEMOGLOBIN,[5],26.03 pg
same,MEAN CORPUSCULAR HEMOGLOBIN CONCENTRATION,[5],40.73 G/DL
same,MEAN CORPUSCULAR VOLUME,[5],63.97 fL
same,MONOCYTE,[5],0.67%
same,NEUTROPHIL,[5],4.67%
same,NUCLEATED RED BLOOD CELLS,[5],0 /100WBC
same,PLATELET COUNT,[5],1138.67 x10E3/uL
same,ALANINE AMINOTRANSFERASE,[6],49 u/L
same,ALKALINE PHOSPHATASE,[6],344.33 u/L
same,ASPARTATE AMINOTRANSFERASE,[6],77 u/L
same,BLOOD UREA NITROGEN,[6],12.33 mg/dL
same,CHLORIDE,[6],100 MEQ/L
same,CHOLESTEROL,[6],82.33 mg/dL
same,CREATINE PHOSPHOKINASE,[6],236.33 u/L
same,CREATININE,[6],0.13 mg/dL
same,GLUCOSE,[6],155 mg/dL
same,LACTATE DEHYDROGENASE,[6],196.33 u/L
same,PHOSPHORUS,[6],11.57 mg/dL
same,POTASSIUM,[6],6.96 MEQ/L
same,TOTAL BILIRUBIN,[6],0.2 mg/dL
same,TOTAL PROTEIN,[6],5.73 G/DL
same,ABSOLUTE BASOPHIL,[7],0 CELLS/uL
same,ABSOLUTE EOSINOPHIL,[7],50.33 CELLS/uL
same,ABSOLUTE MONOCYTE,[7],268.67 CELLS/uL
same,ABSOLUTE SEGMENTED NEUTROPHIL,[7],1091 CELLS/uL
same,BASOPHIL,[7],0%
same,EOSINOPHIL,[7],0.33%
same,ERYTHROCYTE COUNT,[7],5.58 x10E6/uL
same,HEMATOCRIT,[7],35.07%
same,LEUKOCYTE COUNT,[7],11.73 x10E3/uL
same,LYMPHOCYTE,[7],88%
same,MEAN CORPUSCULAR HEMOGLOBIN,[7],25.23 pg
same,MEAN CORPUSCULAR HEMOGLOBIN CONCENTRATION,[7],40.13 G/DL
same,NUCLEATED RED BLOOD CELLS,[7],0 /100WBC
same,PLATELET COUNT,[7],1316.33 x10E3/uL
same,ALANINE AMINOTRANSFERASE,[8],43.33 u/L
same,ALKALINE PHOSPHATASE,[8],369 u/L
same,ASPARTATE AMINOTRANSFERASE,[8],83.33 u/L
same,BLOOD UREA NITROGEN,[8],15.67 mg/dL
same,CARBON DIOXIDE,[8],30.33 mmol/L
same,CHOLESTEROL,[8],67.33 mg/dL
same,CREATINE PHOSPHOKINASE,[8],227.33 u/L
same,CREATININE,[8],0.2 mg/dL
same,GLUCOSE,[8],177.33 mg/dL
same,LACTATE DEHYDROGENASE,[8],246 u/L
same,LIPASE,[8],10 u/L
same,PHOSPHORUS,[8],11.2 mg/dL
same,POTASSIUM,[8],6.65 MEQ/L
same,TOTAL BILIRUBIN,[8],0.27 mg/dL
same,TOTAL PROTEIN,[8],5.93 G/DL
same,URIC ACID,[8],1.4 mg/dL
same,ABSOLUTE BASOPHIL,[9],0 CELLS/uL
same,ABSOLUTE EOSINOPHIL,[9],0 CELLS/uL
same,ABSOLUTE MONOCYTE,[9],196.33 CELLS/uL
same,ABSOLUTE SEGMENTED NEUTROPHIL,[9],1492 CELLS/uL
same,BASOPHIL,[9],0%
same,EOSINOPHIL,[9],0%
same,ERYTHROCYTE COUNT,[9],5.18 x10E6/uL
same,HEMATOCRIT,[9],33.3%
same,HEMOGLOBIN,[9],13.3 G/DL
same,LEUKOCYTE COUNT,[9],14.17 x10E3/uL
same,LYMPHOCYTE,[9],88.67%
same,MEAN CORPUSCULAR HEMOGLOBIN,[9],25.73 pg
same,MEAN CORPUSCULAR HEMOGLOBIN CONCENTRATION,[9],39.93 G/DL
same,NEUTROPHIL,[9],10%
same,NUCLEATED RED BLOOD CELLS,[9],0.33 /100WBC
same,PLATELET COUNT,[9],1209 x10E3/uL
same,ALANINE AMINOTRANSFERASE,[10],54.33 u/L
same,ALBUMIN,[10],3.7 G/DL
same,ALKALINE PHOSPHATASE,[10],440.67 u/L
same,ASPARTATE AMINOTRANSFERASE,[10],82.67 u/L
same,BLOOD UREA NITROGEN,[10],15 mg/dL
same,CARBON DIOXIDE,[10],30 mmol/L
same,CHOLESTEROL,[10],107.67 mg/dL
same,CREATINE PHOSPHOKINASE,[10],183.33 u/L
same,CREATININE,[10],0.16 mg/dL
same,LACTATE DEHYDROGENASE,[10],137 u/L
same,PHOSPHORUS,[10],11 mg/dL
same,POTASSIUM,[10],6.64 MEQ/L
same,TOTAL BILIRUBIN,[10],0.2 mg/dL
same,TOTAL PROTEIN,[10],5.57 G/DL
same,ABSOLUTE BASOPHIL,[11],0 CELLS/uL
same,ABSOLUTE EOSINOPHIL,[11],0 CELLS/uL
same,ABSOLUTE LYMPHOCYTE,[11],10043.33 CELLS/uL
same,ABSOLUTE MONOCYTE,[11],291.67 CELLS/uL
same,ABSOLUTE SEGMENTED NEUTROPHIL,[11],1665 CELLS/uL
same,BASOPHIL,[11],0%
same,EOSINOPHIL,[11],0%
same,ERYTHROCYTE COUNT,[11],6.38 x10E6/uL
same,HEMATOCRIT,[11],39.67%
same,HEMOGLOBIN,[11],15.6 G/DL
same,LEUKOCYTE COUNT,[11],12 x10E3/uL
same,LYMPHOCYTE,[11],84.67%
same,MEAN CORPUSCULAR HEMOGLOBIN,[11],24.57 pg
same,NEUTROPHIL,[11],13%
same,NUCLEATED RED BLOOD CELLS,[11],0 /100WBC
same,PLATELET COUNT,[11],1253 x10E3/uL
same,ALANINE AMINOTRANSFERASE,[12],56.33 u/L
same,ALKALINE PHOSPHATASE,[12],463.67 u/L
same,ASPARTATE AMINOTRANSFERASE,[12],83.67 u/L
same,BLOOD UREA NITROGEN,[12],15.67 mg/dL
same,CHOLESTEROL,[12],116.33 mg/dL
same,CREATINE PHOSPHOKINASE,[12],208.33 u/L
same,CREATININE,[12],0.22 mg/dL
same,GLUCOSE,[12],156 mg/dL
same,LACTATE DEHYDROGENASE,[12],176.33 u/L
same,PHOSPHORUS,[12],10.43 mg/dL
same,POTASSIUM,[12],6.38 MEQ/L
same,TOTAL BILIRUBIN,[12],0.1 mg/dL
same,TOTAL PROTEIN,[12],6 G/DL
same,URIC ACID,[12],1.63 mg/dL
